# Data taken from US6358885B1, “Substituted phenylheterocyclic herbicides” (Mississippi State University, priority 1992, dated 2002).
# Columns and labels:
# [1] = tested on: large crabgrass; assay: Test G preemergence/postemergence greenhouse plant response rating 0 to 100; assay type: in vivo, Digitaria sanguinalis; conditions: 0 to 100 scale
# Method in brief: (§1)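 Scoring: visual injury at 13 to 21 days post-application, compared with untreated controls. Planting: one species per pot in greenhouse medium. Dosing: compound in non-phytotoxic solvent, within one day of sowing for preemergence or at 2–4 leaves for postemergence.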
# [2] = tested on: crabgrass; assay: Test C preemergence/postemergence greenhouse plant response rating 0 to 100; assay type: in vivo, Digitaria sanguinalis; conditions: POSTEMERGENCE; for Plant response rating, Crabgrass: 0 to 100 scale
# Method in brief: (§2)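 Compounds in non-phytotoxic solvent applied preemergence to sandy loam one day after planting, postemergence at the 1–4 leaf stage, or to ~2.5 cm floodwater over silt loam.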
# [3] = tested on: wheat; assay: as above; assay type: in vivo, Triticum aestivum; conditions: POSTEMERGENCE; for Plant response rating, Wheat: 0 to 100 scale
# Method in brief: as §2
# [4] = tested on: lambsquarters; assay: as above; assay type: in vivo, Chenopodium album; conditions: POSTEMERGENCE; for Plant response rating Lambsquarters: 0 to 100 scale
# Method in brief: as §2
# [5] = tested on: velvetleaf; assay: Test B preemergence/postemergence greenhouse plant response rating 0 to 10; assay type: in vivo, Abutilon theophrasti; conditions: 0 to 10 scale
# Method in brief: (§3)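 Planted seeds are treated preemergence with compound dissolved in a non-phytotoxic solvent, while postemergence applications go onto plants of two to eighteen cm. Plants stay in the greenhouse twelve to sixteen days and are then rated visually relative to controls.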
# [6] = tested on: bermudagrass; assay: Test G preemergence/postemergence greenhouse plant response rating 0 to 100; assay type: in vivo, Cynodon dactylon; conditions: 0 to 100 scale
# Method in brief: as §1
# [7] = tested on: morningglory; assay: Test B preemergence/postemergence greenhouse plant response rating 0 to 10; assay type: in vivo, Ipomoea hederacea; conditions: 0 to 10 scale
# Method in brief: as §3
# [8] = tested on: soybean; assay: as above; assay type: in vivo, Glycine max; conditions: 0 to 10 scale
# Method in brief: as §3
# [9] = tested on: velvetleaf; assay: Test C preemergence/postemergence greenhouse plant response rating 0 to 100; assay type: in vivo, Abutilon theophrasti; conditions: POSTEMERGENCE; for Plant response rating, Velvetleaf: 0 to 100 scale
# Method in brief: as §2
# [10] = tested on: corn; assay: as above; assay type: in vivo, Zea mays; conditions: POSTEMERGENCE; for Plant response rating, Corn: 0 to 100 scale
# Method in brief: as §2
# [11] = tested on: corn; assay: Test B preemergence/postemergence greenhouse plant response rating 0 to 10; assay type: in vivo, Zea mays; conditions: for Plant response rating, Corn: 0 to 10 scale
# Method in brief: as §3
# [12] = tested on: morningglory; assay: Test C preemergence/postemergence greenhouse plant response rating 0 to 100; assay type: in vivo, Ipomoea hederacea; conditions: POSTEMERGENCE; for Plant response rating, Morningglory: 0 to 100 scale
# Method in brief: as §2
# [13] = tested on: chickweed; assay: Test B preemergence/postemergence greenhouse plant response rating 0 to 10; assay type: in vivo, Stellaria media; conditions: for Plant response rating, Chickweed: 0 to 10 scale
# Method in brief: as §3
# [14] = tested on: sugar beet; assay: as above; assay type: in vivo, Beta vulgaris; conditions: 0 to 10 scale
# Method in brief: as §3
smiles,measurement,setting,value
CC(C)COc1cc(-c2nn3c(c2Cl)CCCC3)c(F)cc1Cl [Compound 30],"Plant response rating, Large Crabgrass","[1]; POSTEMERGENCE, Rate 125 g/ha",0
same,"Plant response rating, Large Crabgrass","[1]; POSTEMERGENCE, Rate 250 g/ha",0
same,"Plant response rating, Large Crabgrass","[1]; PREEMERGENCE, Rate 125 g/ha",0
same,"Plant response rating, Large Crabgrass","[1]; PREEMERGENCE, Rate 250 g/ha",70
same,"Plant response rating, Crabgrass",[2]; 62 g/ha,0
same,"Plant response rating, Crabgrass",[2]; 250 g/ha,20
same,"Plant response rating (0 to 100), Crabgrass",[2]; Rate 4 g/ha,0
same,"Plant response rating (0 to 100), Crabgrass",[2]; Rate 16 g/ha,0
same,"Plant response rating, Wheat",[3]; 62 g/ha,60
same,"Plant response rating, Wheat",[3]; 250 g/ha,90
same,"Plant response rating (0 to 100), Wheat",[3]; Rate 4 g/ha,20
same,"Plant response rating (0 to 100), Wheat",[3]; Rate 16 g/ha,30
same,Plant response rating Lambsquarters,[4]; 62 g/ha,90
same,Plant response rating Lambsquarters,[4]; 250 g/ha,100
same,"Plant response rating (0 to 100), Lambsquarters",[4]; Rate 4 g/ha,50
same,"Plant response rating (0 to 100), Lambsquarters",[4]; Rate 16 g/ha,70
same,"Plant response rating, Velvetleaf","[5]; POSTEMERGENCE, Rate 50 g/ha",7
same,"Plant response rating, Velvetleaf","[5]; PREEMERGENCE, Rate 50 g/ha",5
same,"Plant response rating, Velvetleaf","[5]; Rate 200 g/ha, POSTEMERGENCE",10
same,"Plant response rating, Velvetleaf","[5]; Rate 200 g/ha, PREEMERGENCE",10
same,"Plant response rating, Bermudagrass","[6]; POSTEMERGENCE, Rate 125 g/ha",0
same,"Plant response rating, Bermudagrass","[6]; POSTEMERGENCE, Rate 250 g/ha",0
same,"Plant response rating, Bermudagrass","[6]; PREEMERGENCE, Rate 125 g/ha",0
same,"Plant response rating, Bermudagrass","[6]; PREEMERGENCE, Rate 250 g/ha",0
same,"Plant response rating, Morningglory","[7]; POSTEMERGENCE, Rate 50 g/ha",8
same,"Plant response rating, Morningglory","[7]; PREEMERGENCE, Rate 50 g/ha",2
same,"Plant response rating, Morningglory","[7]; Rate 200 g/ha, POSTEMERGENCE",9
same,"Plant response rating, Morningglory","[7]; Rate 200 g/ha, PREEMERGENCE",5
same,"Plant response rating, Soybean","[8]; POSTEMERGENCE, Rate 50 g/ha",7
same,"Plant response rating, Soybean","[8]; PREEMERGENCE, Rate 50 g/ha",0
same,"Plant response rating, Soybean","[8]; Rate 200 g/ha, POSTEMERGENCE",2
same,"Plant response rating, Soybean","[8]; Rate 200 g/ha, PREEMERGENCE",2
same,"Plant response rating, Velvetleaf",[9]; 62 g/ha,100
same,"Plant response rating, Velvetleaf",[9]; 250 g/ha,100
same,"Plant response rating (0 to 100), Velvetleaf",[9]; Rate 4 g/ha,0
same,"Plant response rating (0 to 100), Velvetleaf",[9]; Rate 16 g/ha,60
same,"Plant response rating, Corn",[10]; 62 g/ha,30
same,"Plant response rating, Corn",[10]; 250 g/ha,40
same,"Plant response rating (0 to 100), Corn",[10]; Rate 4 g/ha,20
same,"Plant response rating (0 to 100), Corn",[10]; Rate 16 g/ha,20
same,"Plant response rating (0 to 10 scale), Corn","[11]; POSTEMERGENCE, Rate 50 g/ha",4
same,"Plant response rating, Corn","[11]; POSTEMERGENCE, Rate 200 g/ha",4
same,"Plant response rating, Corn","[11]; PREEMERGENCE, Rate 50 g/ha",0
same,"Plant response rating, Corn","[11]; Rate 200 g/ha, PREEMERGENCE",1
same,"Plant response rating, Morningglory",[12]; 62 g/ha,80
same,"Plant response rating, Morningglory",[12]; 250 g/ha,90
same,"Plant response rating (0 to 100), Morningglory",[12]; Rate 4 g/ha,30
same,"Plant response rating (0 to 100), Morningglory",[12]; Rate 16 g/ha,50
same,"Plant response rating (0 to 10 scale), Chickweed","[13]; POSTEMERGENCE, Rate 50 g/ha",5
same,"Plant response rating, Chickweed","[13]; POSTEMERGENCE, Rate 200 g/ha",8
same,"Plant response rating, Chickweed","[13]; PREEMERGENCE, Rate 50 g/ha",0
same,"Plant response rating, Chickweed","[13]; Rate 200 g/ha, PREEMERGENCE",3
same,"Plant response rating, Sugar beet","[14]; POSTEMERGENCE, Rate 50 g/ha",10
same,"Plant response rating, Sugar beet","[14]; PREEMERGENCE, Rate 50 g/ha",5
same,"Plant response rating, Sugar beet","[14]; Rate 200 g/ha, POSTEMERGENCE",10
same,"Plant response rating, Sugar beet","[14]; Rate 200 g/ha, PREEMERGENCE",9
COC(=O)C(C)Oc1cc(-c2nn3c(c2Cl)CCCC3)c(F)cc1Cl (stereo not drawn) [Compound 28],"Plant response rating, Large Crabgrass","[1]; POSTEMERGENCE, Rate 125 g/ha",0
same,"Plant response rating, Large Crabgrass","[1]; POSTEMERGENCE, Rate 250 g/ha",0
same,"Plant response rating, Large Crabgrass","[1]; PREEMERGENCE, Rate 125 g/ha",0
same,"Plant response rating, Large Crabgrass","[1]; PREEMERGENCE, Rate 250 g/ha",0
same,"Plant response rating, Crabgrass",[2]; 62 g/ha,20
same,"Plant response rating, Crabgrass",[2]; 250 g/ha,50
same,"Plant response rating (0 to 100), Crabgrass",[2]; Rate 4 g/ha,0
same,"Plant response rating (0 to 100), Crabgrass",[2]; Rate 16 g/ha,0
same,"Plant response rating, Wheat",[3]; 62 g/ha,70
same,"Plant response rating, Wheat",[3]; 250 g/ha,100
same,"Plant response rating (0 to 100), Wheat",[3]; Rate 4 g/ha,40
same,"Plant response rating (0 to 100), Wheat",[3]; Rate 16 g/ha,60
same,Plant response rating Lambsquarters,[4]; 62 g/ha,80
same,Plant response rating Lambsquarters,[4]; 250 g/ha,100
same,"Plant response rating (0 to 100), Lambsquarters",[4]; Rate 4 g/ha,50
same,"Plant response rating (0 to 100), Lambsquarters",[4]; Rate 16 g/ha,80
same,"Plant response rating, Velvetleaf","[5]; POSTEMERGENCE, Rate 50 g/ha",10
same,"Plant response rating, Velvetleaf","[5]; POSTEMERGENCE, Rate 200 g/ha",10
same,"Plant response rating, Velvetleaf","[5]; PREEMERGENCE, Rate 50 g/ha",5
same,"Plant response rating, Velvetleaf","[5]; Rate 200 g/ha, PREEMERGENCE",10
same,"Plant response rating, Bermudagrass","[6]; POSTEMERGENCE, Rate 125 g/ha",0
same,"Plant response rating, Bermudagrass","[6]; POSTEMERGENCE, Rate 250 g/ha",0
same,"Plant response rating, Bermudagrass","[6]; PREEMERGENCE, Rate 125 g/ha",0
same,"Plant response rating, Bermudagrass","[6]; PREEMERGENCE, Rate 250 g/ha",0
same,"Plant response rating, Morningglory","[7]; POSTEMERGENCE, Rate 50 g/ha",8
same,"Plant response rating, Morningglory","[7]; POSTEMERGENCE, Rate 200 g/ha",10
same,"Plant response rating, Morningglory","[7]; PREEMERGENCE, Rate 50 g/ha",3
same,"Plant response rating, Morningglory","[7]; Rate 200 g/ha, PREEMERGENCE",3
same,"Plant response rating, Soybean","[8]; POSTEMERGENCE, Rate 50 g/ha",8
same,"Plant response rating, Soybean","[8]; POSTEMERGENCE, Rate 200 g/ha",9
same,"Plant response rating, Soybean","[8]; PREEMERGENCE, Rate 50 g/ha",0
same,"Plant response rating, Soybean","[8]; Rate 200 g/ha, PREEMERGENCE",0
same,"Plant response rating, Velvetleaf",[9]; 62 g/ha,100
same,"Plant response rating, Velvetleaf",[9]; 250 g/ha,100
same,"Plant response rating (0 to 100), Velvetleaf",[9]; Rate 4 g/ha,100
same,"Plant response rating (0 to 100), Velvetleaf",[9]; Rate 16 g/ha,100
same,"Plant response rating, Corn",[10]; 62 g/ha,80
same,"Plant response rating, Corn",[10]; 250 g/ha,90
same,"Plant response rating (0 to 100), Corn",[10]; Rate 4 g/ha,20
same,"Plant response rating (0 to 100), Corn",[10]; Rate 16 g/ha,25
same,"Plant response rating (0 to 10 scale), Corn","[11]; POSTEMERGENCE, Rate 50 g/ha",6
same,"Plant response rating, Corn","[11]; POSTEMERGENCE, Rate 200 g/ha",9
same,"Plant response rating, Corn","[11]; PREEMERGENCE, Rate 50 g/ha",0
same,"Plant response rating, Corn","[11]; Rate 200 g/ha, PREEMERGENCE",2
same,"Plant response rating, Morningglory",[12]; 62 g/ha,100
same,"Plant response rating, Morningglory",[12]; 250 g/ha,100
same,"Plant response rating (0 to 100), Morningglory",[12]; Rate 4 g/ha,50
same,"Plant response rating (0 to 100), Morningglory",[12]; Rate 16 g/ha,80
same,"Plant response rating, Chickweed","[13]; POSTEMERGENCE, Rate 200 g/ha",9
same,"Plant response rating, Chickweed","[13]; PREEMERGENCE, Rate 50 g/ha",1
same,"Plant response rating, Chickweed","[13]; Rate 200 g/ha, PREEMERGENCE",7
same,"Plant response rating, Sugar beet","[14]; POSTEMERGENCE, Rate 50 g/ha",10
same,"Plant response rating, Sugar beet","[14]; POSTEMERGENCE, Rate 200 g/ha",10
same,"Plant response rating, Sugar beet","[14]; PREEMERGENCE, Rate 50 g/ha",10
same,"Plant response rating, Sugar beet","[14]; Rate 200 g/ha, PREEMERGENCE",10
